Earlier results, collected in patent publication US20070110909A1, “Reduction or elimination of microbial growth and biofouling of salted wet biomass byproducts” (priority 2005, published 2007).

Tests used:
animal tests = conditions: birth defects in rats
rats, mice and hamsters = conditions: fore-stomachs of rats

Row | Compound | toxic effects in animal tests (animal tests) | tumors in animals (rats, mice and hamsters)
1 | Cc1cc(C(C)(C)C)c(O)c(C(C)(C)C)c1 [BHT, Butylated hydroxytoluene] | caused liver cancer and lung tumors, increased blood cholesterol, reduced growth rates and body weight | 
2 | COc1ccc(O)c(C(C)(C)C)c1 [BHA, Butylated hydroxyanisole] |  | caused cancerous tumors
